Results reported in patent US11629171B2, “Beta-hairpin peptidomimetics” (POLYPHOR AG, priority 2017, dated 2023).
≈ marks a conversion by molar mass, not a printed value. Where a SMILES comes first, the peptide text is derived from it. Bridges are numbered along the chain shown (N, C = ends). Roman numbers before positions name the chains, in order. [ ]: non-standard residue; d: D form. dDab = NCC[C@@H](N)C(=O)O; Nle = CCCC[C@H](N)C(=O)O; Dab = NCC[C@H](N)C(=O)O; Abu = CC[C@H](N)C(=O)O; Dap = NC[C@H](N)C(=O)O

Legend:
[1] = system: Acinetobacter baumannii 872842; type: cell-based; details: 872842
In short: (§1)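 Two-fold peptide dilutions in polysorbate 80-containing (0.002% final) cation-adjusted Mueller-Hinton II broth were inoculated with about 10^6 CFU/mL. The MIC was taken as the lowest concentration, in μg/mL, preventing visible growth at 18-20 hours and 35° C.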

[2] = system: Acinetobacter baumannii DSM 30008; type: cell-based; details: DSM 30008
In short: as §1

[3] = system: Enterobacter cloacae 848840; type: cell-based; details: 848840
In short: as §1

Escherichia coli 926415 = type: cell-based; details: 926415
In short: as §1

[4] = system: Escherichia coli ATCC 25922; type: cell-based; details: ATCC 25922
In short: as §1

[5] = system: Klebsiella pneumoniae 968733; type: cell-based; details: 968733
In short: as §1

[6] = system: Klebsiella pneumoniae SSI #3010; type: cell-based; details: SSI #3010
In short: as §1

[7] = system: Pseudomonas aeruginosa ATCC 27853; type: cell-based; details: ATCC 27853
In short: as §1

[8] = system: human red blood cells (hRBC); experiment: Hemolysis; type: cell-based; details: red cells of human, 1 h, 200
In short: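 Percent hemolysis relative to 2% Triton X-100 (100%) and PBS/10% water (0%), from blank-corrected OD540 of diluted supernatants. Peptides tested at 200 μg/mL against 20% (v/v) washed human erythrocytes, 1 h, 37° C, shaking at 300 rpm.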

male ICR mice = experiment: Tolerability in a mouse model (Maximum Tolerated Dose assay); type: in vivo; details: groups of 3
In short: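 Groups of 3 male ICR mice weighing 23±3 g received two subcutaneous doses, 12 h apart, of 30 or 40 mg/kg in saline adjusted to pH 6.5-7.6. Observation for 30 min after each dose covered autonomic effects and acute toxicity, including death.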

[9] = 2 × 40 mg/kg s.c. at a 12-hr interval
[10] = 2 × 30 mg/kg s.c. at a 12-hr interval

Row | Structure (SMILES) | MIC [1] | Acinetobacter baumannii DSM 30008 MIC [2] | MIC [3] | MIC (Escherichia coli 926415) | Escherichia coli ATCC 25922 MIC [4] | MIC [5] | Klebsiella pneumoniae SSI #3010 MIC [6] | Pseudomonas aeruginosa ATCC 27853 MIC [7] | Hemolysis at 200 μg/mL [8] | Mortality and dose (male ICR mice; [9]) | MIC [2] | MIC [4] | MIC [6] | MIC [7] | Mortality and dose (male ICR mice; [10])
1 | CC(=O)N[C@H](C(=O)N[C@H]1CSSC[C@@H](C(=O)N[C@@H](CO)C(N)=O)NC(=O)[C@H](C(C)C)NC(=O)[C@H](CO)NC(=O)[C@H](Cc2c[nH]c3ccccc23)NC(=O)[C@H](CO)NC(=O)[C@@H](CCN)NC(=O)[C@H](CCC(=O)N[C@@H](CCN)C(=O)N[C@H](C(=O)N[C@@H](CN)C(=O)N[C@H]2CCNC(=O)[C@H]([C@@H](C)O)NC(=O)[C@H](CCN)NC(=O)[C@H](CCN)NC(=O)[C@H]([C@@H](C)O)NC(=O)[C@@H](CC(C)C)NC(=O)[C@H](CCN)NC2=O)[C@@H](C)O)NC(=O)[C@H](CCN)NC(=O)[C@H](Cc2ccc(O)cc2)NC1=O)C(C)C [Ex. 331] (I: Ac-VCY[Dab]E[dDab]SWSVCS-NH2 / II: [Dab]T[Dap][Dab][Dab][dL]T[Dab][Dab]T; disulfide I:2-I:11; amide I:5-II:N; lactam II:4-II:C) | 0.25 µg/mL (≈ 0.105 µM) | 0.125 µg/mL | 0.25 µg/mL (≈ 0.105 µM) | 0.5 µg/mL (≈ 0.209 µM) | 0.0625 µg/mL | 0.5 µg/mL (≈ 0.209 µM) | 0.0625 µg/mL | 0.125 µg/mL | <1% | 0/3 died at 2 × 40 mg/kg |  |  |  |  | 
2 | CC(=O)N[C@H](C(=O)N[C@H]1CSSC[C@@H](C(=O)N[C@@H](CO)C(N)=O)NC(=O)[C@H](C(C)C)NC(=O)[C@H](CO)NC(=O)[C@H](Cc2c[nH]c3ccccc23)NC(=O)[C@H](CCC(=O)N[C@@H](CCN)C(=O)N[C@H](C(=O)N[C@@H](CN)C(=O)N[C@H]2CCNC(=O)[C@H]([C@@H](C)O)NC(=O)[C@H](CCN)NC(=O)[C@H](CCN)NC(=O)[C@H](CC(C)C)NC(=O)[C@@H](CC(C)C)NC(=O)[C@H](CCN)NC2=O)[C@@H](C)O)NC(=O)[C@@H](CCN)NC(=O)[C@H](Cc2c[nH]cn2)NC(=O)[C@H](CO)NC(=O)[C@H](Cc2ccc(O)cc2)NC1=O)C(C)C [Ex. 358] (I: Ac-VCYSH[dDab]EWSVCS-NH2 / II: [Dab]T[Dap][Dab][Dab][dL]L[Dab][Dab]T; disulfide I:2-I:11; amide I:7-II:N; lactam II:4-II:C) | 0.0625 µg/mL (≈ 0.0257 µM) | 0.03125 µg/mL | 0.125 µg/mL (≈ 0.0513 µM) | 0.25 µg/mL (≈ 0.103 µM) | 0.03125 µg/mL | 0.25 µg/mL (≈ 0.103 µM) | 0.125 µg/mL | 0.125 µg/mL | 1% | 0/3 died at 2 × 40 mg/kg |  |  |  |  | 
3 | CC(=O)N[C@H](C(=O)N[C@H]1CSSC[C@@H](C(=O)N[C@H](C)C(=O)N[C@@H](CO)C(N)=O)NC(=O)[C@H](C(C)C)NC(=O)[C@H](CO)NC(=O)[C@H](Cc2c[nH]c3ccccc23)NC(=O)[C@H](CO)NC(=O)[C@@H](CCN)NC(=O)[C@H](CCC(=O)N[C@@H](CCN)C(=O)N[C@H](C(=O)N[C@@H](CN)C(=O)N[C@H]2CCNC(=O)[C@H]([C@@H](C)O)NC(=O)[C@H](CCN)NC(=O)[C@H](CCN)NC(=O)[C@H](CC(C)C)NC(=O)[C@@H](CC(C)C)NC(=O)[C@H](CCN)NC2=O)[C@@H](C)O)NC(=O)[C@H](CCN)NC(=O)[C@H](Cc2ccc(O)cc2)NC1=O)C(C)C [Ex. 370] (I: Ac-VCY[Dab]E[dDab]SWSVC[dA]S-NH2 / II: [Dab]T[Dap][Dab][Dab][dL]L[Dab][Dab]T; disulfide I:2-I:11; amide I:5-II:N; lactam II:4-II:C) | 0.5 µg/mL (≈ 0.202 µM) | 0.0625 µg/mL | 0.125 µg/mL (≈ 0.0506 µM) | 0.5 µg/mL (≈ 0.202 µM) | 0.0625 µg/mL | 1 µg/mL (≈ 0.405 µM) | 0.0625 µg/mL | 0.125 µg/mL | 2% | 0/3 died at 2 × 40 mg/kg |  |  |  |  | 
4 | CC(=O)N[C@H](C(=O)N[C@H]1CSSC[C@@H](C(=O)N[C@@H](CO)C(N)=O)NC(=O)[C@H](C(C)C)NC(=O)[C@H](CO)NC(=O)[C@H](Cc2c[nH]c3ccccc23)NC(=O)[C@H](CCN)NC(=O)[C@@H](CO)NC(=O)[C@H](CCC(=O)N[C@@H](CCN)C(=O)N[C@H](C(=O)N[C@@H](CN)C(=O)N[C@H]2CCNC(=O)[C@H]([C@@H](C)O)NC(=O)[C@H](CCN)NC(=O)[C@H](CCN)NC(=O)[C@H](CC(C)C)NC(=O)[C@@H](CC(C)C)NC(=O)[C@H](CCN)NC2=O)[C@@H](C)O)NC(=O)[C@H](CCN)NC(=O)[C@H](Cc2ccc(O)cc2)NC1=O)C(C)C [Ex. 297] (I: Ac-VCY[Dab]E[dS][Dab]WSVCS-NH2 / II: [Dab]T[Dap][Dab][Dab][dL]L[Dab][Dab]T; disulfide I:2-I:11; amide I:5-II:N; lactam II:4-II:C) | 0.0625 µg/mL (≈ 0.0261 µM) |  | 0.125 µg/mL (≈ 0.0521 µM) | 0.125 µg/mL (≈ 0.0521 µM) |  | 0.125 µg/mL (≈ 0.0521 µM) |  |  | <1% | 0/3 died at 2 × 40 mg/kg | 0.03125 µg/mL (≈ 0.013 µM) | 0.03125 µg/mL (≈ 0.013 µM) | 0.0625 µg/mL (≈ 0.0261 µM) | 0.125 µg/mL (≈ 0.0521 µM) | 
5 | CCCC[C@H](NC(C)=O)C(=O)N[C@H]1CSSC[C@@H](C(=O)N[C@H](C(N)=O)[C@@H](C)O)NC(=O)[C@H]([C@@H](C)CC)NC(=O)[C@H](CO)NC(=O)[C@H](Cc2c[nH]c3ccccc23)NC(=O)[C@H](CCN)NC(=O)[C@@H](CCN)NC(=O)[C@H](CCC(=O)N[C@@H](CCN)C(=O)N[C@H](C(=O)N[C@@H](CN)C(=O)N[C@H]2CCNC(=O)[C@H]([C@@H](C)O)NC(=O)[C@H](CCN)NC(=O)[C@H](CCN)NC(=O)[C@H](CC)NC(=O)[C@@H](CC(C)C)NC(=O)[C@H](CCN)NC2=O)[C@@H](C)O)NC(=O)[C@H](CO)NC(=O)[C@H](Cc2ccc(O)cc2)NC1=O [Ex. 259] (I: Ac-[Nle]CYSE[dDab][Dab]WSICT-NH2 / II: [Dab]T[Dap][Dab][Dab][dL][Abu][Dab][Dab]T; disulfide I:2-I:11; amide I:5-II:N; lactam II:4-II:C) | 0.03125 µg/mL (≈ 0.013 µM) |  | 0.0625 µg/mL (≈ 0.0259 µM) | 0.125 µg/mL (≈ 0.0518 µM) |  | 0.0625 µg/mL (≈ 0.0259 µM) |  |  | 2% |  | 0.01562 µg/mL (≈ 0.00647 µM) | 0.01562 µg/mL (≈ 0.00647 µM) | 0.03125 µg/mL (≈ 0.013 µM) | 0.0625 µg/mL (≈ 0.0259 µM) | 0/3 died at 2 × 30 mg/kg
6 | CC[C@@H]1NC(=O)[C@H](CO)NC(=O)[C@H](Cc2c[nH]c3ccccc23)NC(=O)[C@H](CO)NC(=O)[C@@H](CCN)NC(=O)[C@H](CCC(=O)N[C@@H](CCN)C(=O)N[C@H](C(=O)N[C@@H](CN)C(=O)N[C@H]2CCNC(=O)[C@H]([C@@H](C)O)NC(=O)[C@H](CCN)NC(=O)[C@H](CCN)NC(=O)[C@H](CC)NC(=O)[C@@H](CC(C)C)NC(=O)[C@H](CCN)NC2=O)[C@@H](C)O)NC(=O)[C@H](CCN)NC(=O)[C@H](Cc2ccc(O)cc2)NC(=O)[C@@H](NC(=O)[C@@H](NC(C)=O)C(C)C)CSSC[C@@H](C(=O)N[C@@H](CO)C(N)=O)NC1=O [Ex. 339] (I: Ac-VCY[Dab]E[dDab]SWS[Abu]CS-NH2 / II: [Dab]T[Dap][Dab][Dab][dL][Abu][Dab][Dab]T; disulfide I:2-I:11; amide I:5-II:N; lactam II:4-II:C) | 0.125 µg/mL (≈ 0.053 µM) | 0.0625 µg/mL | 0.125 µg/mL (≈ 0.053 µM) | 0.5 µg/mL (≈ 0.212 µM) | 0.0625 µg/mL | 0.5 µg/mL (≈ 0.212 µM) | 0.0625 µg/mL | 0.125 µg/mL | <1% | 0/3 died at 2 × 40 mg/kg |  |  |  |  | 
7 | CC(=O)N[C@H](C(=O)N[C@H]1CSSC[C@@H](C(=O)N[C@@H](CO)C(N)=O)NC(=O)[C@H](C(C)C)NC(=O)[C@H](CCC(=O)O)NC(=O)[C@H](Cc2c[nH]c3ccccc23)NC(=O)[C@H](CO)NC(=O)[C@@H](CCN)NC(=O)[C@H](CCC(=O)N[C@@H](CCN)C(=O)N[C@H](C(=O)N[C@@H](CN)C(=O)N[C@H]2CCNC(=O)[C@H]([C@@H](C)O)NC(=O)[C@H](CCN)NC(=O)[C@H](CCN)NC(=O)[C@H](CC(C)C)NC(=O)[C@@H](CC(C)C)NC(=O)[C@H](CCN)NC2=O)[C@@H](C)O)NC(=O)[C@H](CCN)NC(=O)[C@H](Cc2ccc(O)cc2)NC1=O)C(C)C [Ex. 150] (I: Ac-VCY[Dab]E[dDab]SWEVCS-NH2 / II: [Dab]T[Dap][Dab][Dab][dL]L[Dab][Dab]T; disulfide I:2-I:11; amide I:5-II:N; lactam II:4-II:C) | 0.125 µg/mL (≈ 0.0512 µM) |  | 0.125 µg/mL (≈ 0.0512 µM) | 0.25 µg/mL (≈ 0.102 µM) |  | 0.5 µg/mL (≈ 0.205 µM) |  |  | <1% |  | 0.0625 µg/mL (≈ 0.0256 µM) | 0.03125 µg/mL (≈ 0.0128 µM) | 0.125 µg/mL (≈ 0.0512 µM) | 0.125 µg/mL (≈ 0.0512 µM) | 0/3 died at 2 × 30 mg/kg
